We go through one molecule from article PMC9603750, “Chalcone-Acridine Hybrid Suppresses Melanoma Cell Progression via G2/M Cell Cycle Arrest, DNA Damage, Apoptosis, and Modulation of MAP Kinases Activity” (International Journal of Molecular Sciences, 2022).

Test [1] deals with A2058 melanoma cells. In words: AO/PI viability assay (fluorescence microscopy). It is filed as cell-based, human. As to conditions: A2058, 1C 10 μmol/L, 24, 48 and 72 h. On the procedure: (§1) The A2058 and BLM melanoma cells were seeded at a density of 5 × 10^4/well into 6-well culture plates. Twenty-four hours after seeding, A2058 cells were treated with chalcone 1C at 10 μmol/L concentration, BLM cells at 20 μmol/L concentration and both melanoma cell lines were treated with vehicle (DMSO) at the same concentrations. At 24, 48 and 72 h after treatment, the culture medium was removed, the cells were washed with washing buffer (PBS) and fixed with 4% paraformaldehyde (pH 7.2) for 30 min. In the next step, the paraformaldehyde was removed, the cells were washed with PBS and the staining solution (10 μg/mL acridine orange and 10 μg/mL propidium iodide, Sigma-Aldrich) was added to each well for 1 h incubation at room temperature in the dark. Finally, the staining solution was removed, the cells were washed with PBS and apoptosis was observed using an automated Cytation™ 3 Cell Imaging Multi-Mode Reader (Biotek, Winooski, VT, USA).

The test system of test [2] is BLM melanoma cells. Nature of the test: AO/PI viability assay (fluorescence microscopy). Format: cell-based, human. The following applies: 1C 20 μmol/L, 24, 48 and 72 h. The method, then: as §1
The subject of test [3] is A2058 melanoma cells. Nature of the test: Flow cytometric analysis of mitochondrial membrane potential (TMRE). It is filed as cell-based, human. As to conditions: A2058, 1C 10 μmol/L, 24, 48 and 72 h. The method, then: (§2) The A2058 and BLM melanoma cells were seeded 1 × 10^6 in Petri dishes with complete growth medium and cultivated for 24 h. After cell cultivation, the A2058 cells were treated with chalcone 1C at 10 μmol/L concentration, BLM cells at 20 μmol/L concentration and both melanoma cell lines were treated with DMSO as the negative control at the same concentrations for 24, 48 and 72 h. Adherent and floating cells were harvested, pelleted by centrifugation at 1200 rpm for 5 min. Pellets were resuspended in washing buffer (PBS) and divided for a particular analysis. Afterwards, cells were prepared according to assay kit protocols or fixed with cold 4% paraformaldehyde (15 min) and permeabilized with 90% methanol (10 min on ice) with washing steps (PBS) and stained prior to analysis (Table 5) for 15 min in the dark at room temperature. Fluorescence was detected using a BD FACSCalibur^TM Flow Cytometer (Becton Dickinson, San Jose, CA, USA).

Test [4] deals with BLM melanoma cells. The test is described as above. It is filed as cell-based, human. As to conditions: 1C 20 μmol/L, 24, 48 and 72 h. The method, then: as §2
Test [5] relates to A2058 melanoma cells. In words: Flow cytometric analysis of DNA damage (ATM, SMC1, H2A.X phosphorylation). Format: cell-based, human. On the procedure: as §2
Test [6] relates to BLM melanoma cells. The test is described as above. It is filed as cell-based, human. The method, then:
as §2

For test [7], the system named is MCF-10A. In words: MTT assay (metabolic activity). It is filed as cell-based. The following applies: Homo sapiens; MCF-10A noncancer cell line, 72 h incubation. The method, then:
Cell lines A2058 (human melanoma lymph node metastasis, cat. 91100402) from ECACC (Public Health England, Salisbury, UK) and BLM (human melanoma lung metastasis a gift from prof. K. Smetana, Institute of Anatomy, Charles University in Prague) were cultured in a medium consisting of high glucose Dulbecco’s Modified Eagle’s Medium (DMEM) and sodium pyruvate (GE Healthcare, Piscataway, NJ, USA). The growth medium was supplemented with a 10% fetal bovine serum (FBS) and antibiotic/antimycotic solution 1 × HyClone™ (GE Healthcare, Chicago, IL, USA). The MCF-10A (human mammary epithelial cells) cell line was cultured in a medium consisting of high glucose Dulbecco’s Modified Eagle’s Medium F12 (DMEM/F12) (Biosera, Kansas City, MO, USA). The growth medium was supplemented with a 10% FBS, antibiotic/antimycotic solution 1 × HyClone™ (GE Healthcare, Chicago, IL, USA), epidermal growth factor (EGF) (20 ng/mL final), hydrocortisone (0.5 μg/mL final) and insulin (10 μg/mL final) (Sigma-Aldrich Chemie, Steinheim, Germany). Cells were cultured in humidified air at 37 °C with atmosphere containing 5% CO2.
The half-maximal inhibitory concentration values (IC50) and metabolism inhibition of tested synthetic chalcone derivatives were determined by MTT (3-(4,5-di-methylthiazol-2-yl)2,5-diphenyltetrazolium bromide) colorimetric assay (Sigma-Aldrich Chemie, Steinheim, Germany). Tested cell lines were seeded at a density of 5 × 10^3 cells/well in 96-well culture plates. After 24 h, the tested chalcones in concentrations of 100, 50 and 10 μmol/L were added and incubation proceeded for the next 72 h. In the next step, 10 μL of MTT (5 mg/mL) was added to each well containing cells and incubated for another 4 h at 37 °C during which MTT was metabolized to insoluble formazan in cells. After 4 h, 100 μL of a 10% sodium dodecyl sulphate (SDS) was added to each well and another 24 h were allowed for the formazan crystals to dissolve. The metabolic activity of cells was evaluated by measuring the absorbance at wavelength 540 nm using the automated Cytation™ 3 Cell Imaging Multi-Mode Reader (Biotek, Winooski, VT, USA). Three independent analyses were performed.

[8] abbreviates: A2058, 1C 10 μmol/L, 24, 48 and 72 h.

Each structure is given as a SMILES string.

In the case of `COc1cccc(OC)c1C(=O)/C=C/c1c2ccccc2nc2ccccc12` [Compound 1C, (2E)-3-(acridin-9-yl)-1-(2,6-dimethoxyphenyl)prop-2-en-1-one], the “Proliferation and viability (AO/PI staining)” value was “significant decrease in proliferation and viability” in test [1]; “significant decrease in proliferation and viability” in test [2]. Also, the “Cells with reduced mitochondrial membrane potential (MMP)” value in test [3] and in test [4] was “significant increase” each time. Moreover, the “Phosphorylation of H2A.X” value in test [5] (setting [8]) is “significantly induced”; in test [6] (1C 20 μmol/L, 24, 48 and 72 h) it was “significantly induced”. In addition, the “Phosphorylation of SMC1” value in test [5] (setting [8]) is given as “significant phosphorylation”; in test [6] (1C 20 μmol/L, 24, 48 and 72 h) it was “significant phosphorylation”. Moreover, the “Phosphorylation of ATM” value in test [5] (A2058, 1C 10 μmol/L, time-dependent (24, 48 and 72 h)) is listed as “significantly induced”; in test [6] (1C 20 μmol/L, time-dependent (24, 48 and 72 h)) it was “significantly induced”. The IC50 in test [7] was 36.5 ± 0.87 µM.
